Assay results from US20250135049A1, “Methods for Biological Material Labeling and Medical Imaging” (Mayo Foundation for Medical Education and Research, priority 2021, published 2025).

Assays:
[1] = system: human decidual stromal cells (hDSCs), bone marrow-derived macrophages (rMac) and human peripheral blood mononuclear cells (hPBMCs); conditions: Ref. 72; cited from earlier work
[2] = PET imaging and ex vivo biodistribution studies; assay type: in vivo, athymic nude mice; conditions: for SUV Average ± SD: day 7 post-injection, free [^89Zr]ZrCl4, tail vein, n = 3
Description: 8-10 weeks old Athymic nude mice (male and female, 1:1) were obtained from Charles Rivers Laboratories or Taconic Biosciences, Inc.
After radiolabeling, the radiolabeled WBCs-0.1-0.6×10^6 (0.03-0.11 MBq); and SCs-0.1-1×10^6 (0.1-0.15 MBq) were injected in a group (n=3) of athymic nude mice, via tail vein injection. PET images were acquired at 4 hours, 2 days, 4 days and 7 days post-injection (p.i.) using microPET scanner. The free [^89Zr] ZrCl4 with radioactivity (0.15-0.19 MBq) was also injected intravenously via tail vein injection. The micro PET images were analyzed and scaled to SUV by image analysis software. The animals were euthanized at 7 days p.i., and organs/tissues were collected to measure standardized uptake value (SUV) in major organs. Animals were euthanized via cardiectomy under anesthesia using isoflurane as approved by the Institutional Animal Care and Use Committee (IACUC) of the Mayo Clinic Rochester MN, USA.

[3] = Stability of HPLC-purified [^89Zr]Zr-DBN with and without ascorbic acid (HPLC); assay type: physicochemical; conditions: for stability of [^89Zr]Zr-DBN: stored at -20° C.
Description: The purified and concentrated [^89Zr] Zr-DBN was stored at −20° C. and stability was tested at 0 hours, 24 hours, and 72 hours post HPLC purification and concentration in comparison with unpurified [^89Zr] Zr-DBN which was also stored at −20° C. To test the stability, the frozen [^89Zr] Zr-DBN was allowed to come to room temperature and reconstituted with ˜100 μL DMSO. The reconstituted [^89Zr] Zr-DBN (˜ 3.7 MBq) was diluted with ˜900 μL neutralized deionized water (pH 7.0) and pH was further adjusted to pH 7.0 using 1M Na2CO3. The stability of reconstituted and neutralized [^89Zr] Zr-DBN was tested using the same HPLC method that was used for [^89Zr] Zr-DBN purification.
The HPLC purified [^89Zr] Zr-DBN (˜7.2 mL) was divided into two equal parts of ˜3.6 mL each. In one-part, 25 μL of 200 mg/mL ascorbic acid (Sigma Aldrich, St. Louis, MO, USA) was added. Both ascorbic acid treated, and untreated fractions were concentrated at 0.42 torr and room temperature. […] Zr-DBN purification.

Compound: [89Zr+4].[O-]c1cccc2cccnc12.[O-]c1cccc2cccnc12.[O-]c1cccc2cccnc12.[O-]c1cccc2cccnc12 [[^89Zr] Zr-oxine]
- apparent efflux of ^89Zr from the labeled cells [1]: 29-38%

Compound: [Cl][89Zr]([Cl])([Cl])[Cl] [[^89Zr]ZrCl4, [^89Zr] ZrCl4]
- SUV Average ± SD ([2]; Bladder): 0.32 ± 0.09
- SUV Average ± SD ([2]; Blood): 0.12 ± 0.01
- SUV Average ± SD ([2]; Bone): 9.89 ± 0.4
- SUV Average ± SD ([2]; Brain): 0.02 ± 0.02
- SUV Average ± SD ([2]; Heart): 0.26 ± 0.03
- SUV Average ± SD ([2]; Intestine): 0.09 ± 0.01
- SUV Average ± SD ([2]; Kidney): 0.49 ± 0.07
- SUV Average ± SD ([2]; Liver): 0.61 ± 0.07
- SUV Average ± SD ([2]; Lung): 0.36 ± 0.06
- SUV Average ± SD ([2]; Muscle): 0.14 ± 0.05
- SUV Average ± SD ([2]; Pancreas): 0.29 ± 0.02
- SUV Average ± SD ([2]; Skin): 0.42 ± 0.14
- SUV Average ± SD ([2]; Spleen): 0.39 ± 0.09
- SUV Average ± SD ([2]; Urine): 0.08 ± 0.03
- distribution of radioactivity on micro PET imaging ([2]; intravenous injection, 4 hours, 2 days, 4 days, 7 days): high accumulation of free ^89Zr in the bones

Compound: [^89Zr] zirconium-p-isothiocyanatobenzyl-desferrioxamine [[^89Zr] Zr-DBN]
- stability of [^89Zr]Zr-DBN ([3]; 72 hours post HPLC purification, without ascorbic acid): 66%
- stability of [^89Zr]Zr-DBN ([3]; 72 hours, with addition of ascorbic acid (25 μL of 200 mg/mL)): > 82%
- enhancement of the 27.1 minutes HPLC peak for [^89Zr]Zr-DBN by ascorbic acid ([3]; immediately after concentration, ascorbic acid added before the concentration step): ~12%
